Values quoted from earlier work in EP0759941B1, “HETERODIMER POLYPEPTIDEIMMUNOGEN CARRIER COMPOSITION AND METHOD FOR THEIR USE” (S.P.I. SYNTHETIC PEPTIDES INCORPORATED, priority 1994, dated 1995).

System: primed (human) donors
Settings: recognized by all primed (human) donors; cited from earlier work

Q: With “TT2: tetanus toxoid residues 830-846; SEQ ID NO:12; T-cell antigen (QYIKANSKFIGITELKK; UniProt P04958 830-846, looked up, fragment) [tetanus toxoid residues 830-846; T-cell antigen]” as the substance, how does the “immunogenicity (recognition by primed donors irrespective of MHC haplotypes)” value read?
A: universally immunogenic

Q: For “TT3: tetanus toxoid residues 947-967; SEQ ID NO:14 (FNNFTVSFWLRVPKVSASHLE; UniProt P04958 947-967, looked up, fragment)”, which “immunogenicity (recognition by primed donors irrespective of MHC haplotypes)” value is on record?
A: universally immunogenic
